How the values were obtained:
[1] = system: TGF-β-stimulated SMAD3 phosphorylation in BEAS-2B cells; assay: Cellular ALK5 potency assay, inhibition of TGF-β stimulated pSMAD3 formation in BEAS-2B cells; type: cell-based; details: Homo sapiens, inhibition of TGF-β (10 ng/mL) stimulated pSMAD3 formation, 1 hour compound incubation, read-out: BEAS2B pIC50 (converted)
Method in brief: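 Phospho-SMAD3 was quantified by AlphaLISA in lysates of human lung epithelial BEAS-2B cells. Compound was added 1 h (37 °C, HEPES/BSA-supplemented HBSS) before a 30 min challenge with 10 ng/mL TGF-β. Values are pIC50 relative to stimulated cells without compound.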

[2] = target: T1, recombinant human ALK5 (TGF-βR1) protein (Homo sapiens, UniProt P36897); assay: Biochemical ALK5 (TGF-βR1) assay to measure pKi (LANCE Ultra ULight kinase assay); details: apparent pKi, converted from pIC50 using the Cheng-Prusoff equation
T1 construct: purchased Life Technologies PR9075A
T1 sequence (P36897 34-503): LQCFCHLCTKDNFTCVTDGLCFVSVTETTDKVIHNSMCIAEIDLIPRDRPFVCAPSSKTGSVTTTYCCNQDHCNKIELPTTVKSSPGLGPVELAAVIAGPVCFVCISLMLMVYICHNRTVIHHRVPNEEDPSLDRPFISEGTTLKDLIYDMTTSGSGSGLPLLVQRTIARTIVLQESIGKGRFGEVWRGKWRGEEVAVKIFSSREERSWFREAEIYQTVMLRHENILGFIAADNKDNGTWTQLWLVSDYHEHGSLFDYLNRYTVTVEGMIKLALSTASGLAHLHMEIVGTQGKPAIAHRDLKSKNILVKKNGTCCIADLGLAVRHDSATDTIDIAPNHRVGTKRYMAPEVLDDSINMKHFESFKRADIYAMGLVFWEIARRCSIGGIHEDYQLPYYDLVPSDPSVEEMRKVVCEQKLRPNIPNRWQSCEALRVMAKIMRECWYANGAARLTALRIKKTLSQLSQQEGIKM
Method in brief: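 TR-FRET kinase format: compound dose range 10 μM–25 pM equilibrated 60 min with human ALK5 and ULight-labelled topoisomerase 2α peptide in HEPES/MgCl2 buffer pH 7.5 with DTT. Reaction started with ATP (125 μM stock, 5× final), 60 min at 37° C, stopped with EDTA/Eu-anti-phospho antibody; pKi derived from pIC50 via Cheng-Prusoff.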

Fc1cc(F)c(-c2n[nH]cc2-c2ccc3ncc(-c4cnc5n4CCNC5)cc3n2)cc1Cl [Compound 6-48, 2-[3-(5-chloro-2,4-difluoro-phenyl)-1H-pyrazol-4-yl]-7-(5,6,7,8-tetrahydroimidazo[1,2-a]pyrazin-3-yl)-1,5-naphthyridine]
IC50 [1]: 25.1 to 158 nM | Ki [2]: 0.398 to 3.16 nM

CC(C)(C)N1CCN(CCNc2cnc3ccc(-c4c[nH]nc4-c4cc(Cl)c(F)cc4F)nc3c2)CC1 [Compound 6-13, N-(2-(4-(tert-butyl)piperazin-1-yl)ethyl)-6-(3-(5-chloro-2,4-difluorophenyl)-1H-pyrazol-4-yl)-1,5-naphthyridin-3-amine]
IC50 [1]: 25.1 to 158 nM | Ki [2]: 0.0398 to 0.316 nM

Fc1ccc(Cl)cc1-c1n[nH]cc1-c1ccc2ncc(-c3cnn(CCNCc4ccccc4)c3)cc2n1 [Compound 1-95, N-benzyl-2-[4-[6-[3-(5-chloro-2-fluoro-phenyl)-1H-pyrazol-4-yl]-1,5-naphthyridin-3-yl]pyrazol-1-yl]ethanamine]
IC50 [1]: 25.1 to 158 nM | Ki [2]: 0.0398 to 0.316 nM

O=C(NCc1ccccc1)[C@H]1CN(c2cnc3ccc(-c4c[nH]nc4-c4cc(Cl)ccc4F)nc3c2)CCN1 [Compound 1-67, (2R)-N-benzyl-4-[6-[3-(5-chloro-2-fluoro-phenyl)-1H-pyrazol-4-yl]-1,5-naphthyridin-3-yl]piperazine-2-carboxamide]
IC50 [1]: 25.1 to 158 nM | Ki [2]: 0.398 to 3.16 nM

Fc1ccc(Cl)cc1-c1n[nH]cc1-c1ccc2ncc(-c3[nH]nc4c3CCN4)cc2n1 [Compound 1-125, 2-[3-(5-chloro-2-fluoro-phenyl)-1H-pyrazol-4-yl]-7-(2,4,5,6-tetrahydropyrrolo[2,3-c]pyrazol-3-yl)-1,5-naphthyridine]
IC50 [1]: 25.1 to 158 nM | Ki [2]: 0.0398 to 0.316 nM

Fc1ccc(Cl)cc1-c1nc2ccccn2c1-c1ccc2ncc(-c3cnc4n3CCNC4)cc2n1 [Compound 3-8, 2-[2-(5-chloro-2-fluoro-phenyl)imidazo[1,2-a]pyridin-3-yl]-7-(5,6,7,8-tetrahydroimidazo[1,2-a]pyrazin-3-yl)-1,5-naphthyridine]
IC50 [1]: 25.1 to 158 nM | Ki [2]: 0.0398 to 0.316 nM

Fc1ccc(Cl)cc1-c1n[nH]cc1-c1ccc2ncc(-c3cnn(CC4CNC4)c3)cc2n1 [Compound 1-88, 7-[1-(azetidin-3-ylmethyl)pyrazol-4-yl]-2-[3-(5-chloro-2-fluoro-phenyl)-1H-pyrazol-4-yl]-1,5-naphthyridine]
IC50 [1]: 25.1 to 158 nM | Ki [2]: 0.0398 to 0.316 nM

Fc1ccc(Cl)cc1-c1nc2ccccn2c1-c1ccc2ncc(-c3cn[nH]c3)cc2c1 [Compound 19-3, 6-[2-(5-chloro-2-fluoro-phenyl)imidazo[1,2-a]pyridin-3-yl]-3-(1H-pyrazol-4-yl)quinoline]
IC50 [1]: 25.1 to 158 nM | Ki [2]: 0.398 to 3.16 nM

Fc1ccc(Cl)cc1-c1[nH]cnc1-c1ccc2ncc(NCC3CCCCN3)cc2n1 (centres unmarked) [Compound 2-31, 6-[5-(5-chloro-2-fluoro-phenyl)-1H-imidazol-4-yl]-N-(2-piperidylmethyl)-1,5-naphthyridin-3-amine]
IC50 [1]: 25.1 to 158 nM | Ki [2]: 0.398 to 3.16 nM

Fc1ccc(Cl)cc1-c1n[nH]cc1-c1ccc2ncc(-c3nnn4c3CNCC4)cc2n1 [Compound 1-109, 2-[3-(5-chloro-2-fluoro-phenyl)-1H-pyrazol-4-yl]-7-(4,5,6,7-tetrahydrotriazolo[1,5-a]pyrazin-3-yl)-1,5-naphthyridine]
IC50 [1]: 25.1 to 158 nM | Ki [2]: 0.0398 to 0.316 nM

CC(C)N1CCN(CCNc2cnc3ccc(-c4nc[nH]c4-c4ccc(F)c(F)c4)cc3c2)CC1 [Compound 23-4, 6-(5-(3,4-difluorophenyl)-1H-imidazol-4-yl)-N-(2-(4-isopropylpiperazin-1-yl)ethyl)quinolin-3-amine]
IC50 [1]: 25.1 to 158 nM | Ki [2]: 3.98 to 31.6 nM

CNC(=O)C1CN(c2cnc3ccc(-c4c[nH]nc4-c4cc(Cl)ccc4F)nc3c2)CCN1 (racemic) [Compound 1-51, rac-(2R)-4-[6-[3-(5-chloro-2-fluoro-phenyl)-1H-pyrazol-4-yl]-1,5-naphthyridin-3-yl]-N-methyl-piperazine-2-carboxamide]
IC50 [1]: 25.1 to 158 nM | Ki [2]: 0.0398 to 0.316 nM

COCc1cccc(-c2n[nH]cc2-c2ccc3ncc(N4CCC(N(C)C)C4)cc3n2)c1 (racemic) [Compound 14-4, rac-(3S)-1-[6-[3-[3-(methoxymethyl)phenyl]-1H-pyrazol-4-yl]-1,5-naphthyridin-3-yl]-N,N-dimethyl-pyrrolidin-3-amine]
IC50 [1]: 25.1 to 158 nM | Ki [2]: 3.98 to 31.6 nM

CN(C)C1CCN(c2cnc3ccc(-c4nc[nH]c4-c4cc(Cl)ccc4F)cc3c2)C1 (racemic) [Compound 17-5, rac-(3S)-1-[6-[5-(5-chloro-2-fluoro-phenyl)-1H-imidazol-4-yl]-3-quinolyl]-N,N-dimethyl-pyrrolidin-3-amine]
IC50 [1]: 25.1 to 158 nM | Ki [2]: 0.0398 to 0.316 nM

COCC1CN(c2cnc3ccc(-c4c[nH]nc4-c4cc(Cl)ccc4F)nc3c2)CCN1C (racemic) [Compound 1-80, 2-[3-(5-chloro-2-fluoro-phenyl)-1H-pyrazol-4-yl]-7-[rac-(3R)-3-(methoxymethyl)-4-methyl-piperazin-1-yl]-1,5-naphthyridine]
IC50 [1]: 25.1 to 158 nM | Ki [2]: 0.398 to 3.16 nM

Fc1ccc(Cl)cc1-c1n[nH]cc1-c1ccc2ncc(-c3cnc4n3CCCN4)cc2n1 [Compound 1-124, 2-[3-(5-chloro-2-fluoro-phenyl)-1H-pyrazol-4-yl]-7-(5,6,7,8-tetrahydroimidazo[1,2-a]pyrimidin-3-yl)-1,5-naphthyridine]
IC50 [1]: 25.1 to 158 nM | Ki [2]: 0.0398 to 0.316 nM

C[C@@H]1CN(CCNc2cnc3ccc(-c4nc[nH]c4-c4cc(Cl)ccc4F)nc3c2)C[C@H](C)N1 [Compound 2-29, 6-(5-(5-chloro-2-fluorophenyl)-1H-imidazol-4-yl)-N-(2-((3S,5R)-3,5-dimethylpiperazin-1-yl)ethyl)-1,5-naphthyridin-3-amine]
IC50 [1]: 25.1 to 158 nM | Ki [2]: 0.0398 to 0.316 nM

NC1CCC(c2cnc3ccc(-c4c[nH]nc4-c4cc(Cl)ccc4F)nc3c2)CC1 (centres unmarked) [Compound 1-98, 4-(6-(3-(5-chloro-2-fluorophenyl)-1H-pyrazol-4-yl)-1,5-naphthyridin-3-yl)cyclohexan-1-amine]
IC50 [1]: 200 to 1260 nM | Ki [2]: 3.98 to 31.6 nM

CN(CC1CNC1)c1cnc2ccc(-c3c[nH]nc3-c3cc(Cl)c(F)cc3F)nc2c1 [Compound 6-32, N-(azetidin-3-ylmethyl)-6-[3-(5-chloro-2,4-difluoro-phenyl)-1H-pyrazol-4-yl]-N-methyl-1,5-naphthyridin-3-amine]
IC50 [1]: 25.1 to 158 nM | Ki [2]: 0.0398 to 0.316 nM

C[C@@H]1CN(CCNc2cnc3ccc(-c4c[nH]nc4-c4cc(Cl)ccc4F)nc3c2)C[C@H](C)N1 [Compound 1-1, 6-(3-(5-chloro-2-fluorophenyl)-1H-pyrazol-4-yl)-N-(2-((3S,5R)-3,5-dimethylpiperazin-1-yl)ethyl)-1,5-naphthyridin-3-amine]
IC50 [1]: 25.1 to 158 nM | Ki [2]: 0.0398 to 0.316 nM

COC(=O)CC1CN(CCNc2cnc3ccc(-c4nc[nH]c4-c4cc(Cl)ccc4F)nc3c2)CCN1 (centres unmarked) [Compound 2-36, methyl 2-[4-[2-[[6-[5-(5-chloro-2-fluoro-phenyl)-1H-imidazol-4-yl]-1,5-naphthyridin-3-yl]amino]ethyl]piperazin-2-yl]acetate]
IC50 [1]: 25.1 to 158 nM | Ki [2]: 0.0398 to 0.316 nM

CN(C)C1CCN(c2cnc3ccc(-c4nc[nH]c4-c4cc(Cl)ccc4F)nc3c2)C1 (racemic) [Compound 2-11, rac-(3S)-1-(6-[5-(5-chloro-2-fluoro-phenyl)-1H-imidazol-4-yl]-1,5-naphthyridin-3-yl]-N,N-dimethyl-pyrrolidin-3-amine]
IC50 [1]: ≤ 20 nM | Ki [2]: 0.0398 to 0.316 nM
